Test results: PubChem BioAssay (NCI)
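Dose response: 5 concentrations. Exposure: 48 h. Format: 96-well plates. Endpoint: linear interpolation; highest concentration if not reached. At the GI50, growth is halved. TGI denotes the concentration required for complete inhibition of growth.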

Legend:
Assay in all cases: NCI anticancer screen, dose series, 48 h
786-0 renal = tested on: 786-0 renal
A498 renal = tested on: A498 renal
A549 NSCLC = tested on: A549 NSCLC
ACHN renal = tested on: ACHN renal
BT-549 breast = tested on: BT-549 breast
CAKI-1 renal = tested on: CAKI-1 renal
CCRF-CEM leukemia = tested on: CCRF-CEM leukemia
COLO 205 colon = tested on: COLO 205 colon
DU-145 prostate = tested on: DU-145 prostate
EKVX NSCLC = tested on: EKVX NSCLC
HCC-2998 colon = tested on: HCC-2998 colon
HCT-116 colon = tested on: HCT-116 colon
HCT-15 colon = tested on: HCT-15 colon
HL-60(TB) leukemia = tested on: HL-60(TB) leukemia
HOP-62 NSCLC = tested on: HOP-62 NSCLC
HOP-92 NSCLC = tested on: HOP-92 NSCLC
HS 578T breast = tested on: HS 578T breast
HT29 colon = tested on: HT29 colon
IGROV1 ovarian = tested on: IGROV1 ovarian
K-562 leukemia = tested on: K-562 leukemia
KM12 colon = tested on: KM12 colon
LOX IMVI melanoma = tested on: LOX IMVI melanoma
M14 melanoma = tested on: M14 melanoma
MALME-3M melanoma = tested on: MALME-3M melanoma
MCF7 breast = tested on: MCF7 breast
MDA-MB-231 breast = tested on: MDA-MB-231 breast
MDA-MB-435 = tested on: MDA-MB-435
MDA-MB-468 breast = tested on: MDA-MB-468 breast
MOLT-4 leukemia = tested on: MOLT-4 leukemia
NCI-H226 lung = tested on: NCI-H226 lung
NCI-H23 lung = tested on: NCI-H23 lung
NCI-H460 lung = tested on: NCI-H460 lung
NCI-H522 lung = tested on: NCI-H522 lung
NCI/ADR-RES ovarian = tested on: NCI/ADR-RES ovarian
OVCAR-3 ovarian = tested on: OVCAR-3 ovarian
OVCAR-4 ovarian = tested on: OVCAR-4 ovarian
OVCAR-5 ovarian = tested on: OVCAR-5 ovarian
OVCAR-8 ovarian = tested on: OVCAR-8 ovarian
PC-3 prostate = tested on: PC-3 prostate
RPMI-8226 leukemia = tested on: RPMI-8226 leukemia
RXF 393 renal = tested on: RXF 393 renal
SF-268 CNS = tested on: SF-268 CNS
SF-295 CNS = tested on: SF-295 CNS
SF-539 CNS = tested on: SF-539 CNS
SK-MEL-2 melanoma = tested on: SK-MEL-2 melanoma
SK-MEL-28 melanoma = tested on: SK-MEL-28 melanoma
SK-MEL-5 melanoma = tested on: SK-MEL-5 melanoma
SK-OV-3 ovarian = tested on: SK-OV-3 ovarian
SN12C renal = tested on: SN12C renal
SNB-19 CNS = tested on: SNB-19 CNS
SNB-75 CNS = tested on: SNB-75 CNS
SR leukemia = tested on: SR leukemia
SW-620 colon = tested on: SW-620 colon
T-47D breast = tested on: T-47D breast
TK-10 renal = tested on: TK-10 renal
U251 CNS = tested on: U251 CNS
UACC-257 melanoma = tested on: UACC-257 melanoma
UACC-62 melanoma = tested on: UACC-62 melanoma
UO-31 renal = tested on: UO-31 renal

SMILES: COC(=O)c1c(C(=O)OC)c2n(c1C)[C@@H]([C@@H](C)[C@H]1CC[C@H]3[C@@H]4CCC5=CC(=O)CC[C@]5(C)[C@H]4CC[C@]13C)SC2
- GI50 (786-0 renal): 11.3 µM
- TGI (786-0 renal): > 100 µM
- GI50 (A498 renal): 17.1 µM
- TGI (A498 renal): > 100 µM
- GI50 (A549 NSCLC): 4.29 µM
- TGI (A549 NSCLC): > 100 µM
- GI50 (ACHN renal): 3.36 µM
- TGI (ACHN renal): > 100 µM
- GI50 (BT-549 breast): 1800 nM
- TGI (BT-549 breast): 4.99 µM
- GI50 (CAKI-1 renal): 3.93 µM
- TGI (CAKI-1 renal): > 100 µM
- GI50 (CCRF-CEM leukemia): 3.41 µM
- TGI (CCRF-CEM leukemia): > 100 µM
- GI50 (COLO 205 colon): 4.94 µM
- TGI (COLO 205 colon): > 100 µM
- GI50 (DU-145 prostate): 9.83 µM
- TGI (DU-145 prostate): > 100 µM
- GI50 (EKVX NSCLC): 2340 nM
- TGI (EKVX NSCLC): > 100 µM
- GI50 (HCC-2998 colon): 6.47 µM
- TGI (HCC-2998 colon): > 100 µM
- GI50 (HCT-116 colon): 3000 nM
- TGI (HCT-116 colon): > 100 µM
- GI50 (HCT-15 colon): 3.69 µM
- TGI (HCT-15 colon): > 100 µM
- GI50 (HL-60(TB) leukemia): 2340 nM
- TGI (HL-60(TB) leukemia): 14 µM
- GI50 (HOP-62 NSCLC): 24.3 µM
- TGI (HOP-62 NSCLC): > 100 µM
- GI50 (HOP-92 NSCLC): 6.99 µM
- TGI (HOP-92 NSCLC): 54.4 µM
- GI50 (HS 578T breast): 8.22 µM
- TGI (HS 578T breast): > 100 µM
- GI50 (HT29 colon): 3.75 µM
- TGI (HT29 colon): > 100 µM
- GI50 (IGROV1 ovarian): 18.7 µM
- TGI (IGROV1 ovarian): > 100 µM
- GI50 (K-562 leukemia): 908 nM
- TGI (K-562 leukemia): > 100 µM
- GI50 (KM12 colon): 4.17 µM
- TGI (KM12 colon): > 100 µM
- GI50 (LOX IMVI melanoma): 3.86 µM
- TGI (LOX IMVI melanoma): > 100 µM
- GI50 (M14 melanoma): 4.81 µM
- TGI (M14 melanoma): > 100 µM
- GI50 (MALME-3M melanoma): 4.44 µM
- TGI (MALME-3M melanoma): 72.9 µM
- GI50 (MCF7 breast): 2600 nM
- TGI (MCF7 breast): > 100 µM
- GI50 (MDA-MB-231 breast): 9.73 µM
- TGI (MDA-MB-231 breast): > 100 µM
- GI50 (MDA-MB-435): 3.25 µM
- TGI (MDA-MB-435): > 100 µM
- GI50 (MDA-MB-468 breast): 1930 nM
- TGI (MDA-MB-468 breast): 16.6 µM
- GI50 (MOLT-4 leukemia): 2020 nM
- TGI (MOLT-4 leukemia): 6.34 µM
- GI50 (NCI-H226 lung): 2580 nM
- TGI (NCI-H226 lung): 61.8 µM
- GI50 (NCI-H23 lung): 3.79 µM
- TGI (NCI-H23 lung): > 100 µM
- GI50 (NCI-H460 lung): 5.25 µM
- TGI (NCI-H460 lung): > 100 µM
- GI50 (NCI-H522 lung): 2550 nM
- TGI (NCI-H522 lung): 53.8 µM
- GI50 (NCI/ADR-RES ovarian): 3.13 µM
- TGI (NCI/ADR-RES ovarian): > 100 µM
- GI50 (OVCAR-3 ovarian): 5.08 µM
- TGI (OVCAR-3 ovarian): > 100 µM
- GI50 (OVCAR-4 ovarian): 3.05 µM
- TGI (OVCAR-4 ovarian): > 100 µM
- GI50 (OVCAR-5 ovarian): 4.67 µM
- TGI (OVCAR-5 ovarian): > 100 µM
- GI50 (OVCAR-8 ovarian): 3.32 µM
- TGI (OVCAR-8 ovarian): > 100 µM
- GI50 (PC-3 prostate): 2310 nM
- TGI (PC-3 prostate): > 100 µM
- GI50 (RPMI-8226 leukemia): 1560 nM
- TGI (RPMI-8226 leukemia): > 100 µM
- GI50 (RXF 393 renal): 8.82 µM
- TGI (RXF 393 renal): 52.4 µM
- GI50 (SF-268 CNS): 6.58 µM
- TGI (SF-268 CNS): > 100 µM
- GI50 (SF-295 CNS): 2680 nM
- TGI (SF-295 CNS): 27.9 µM
- GI50 (SF-539 CNS): 7.07 µM
- TGI (SF-539 CNS): 84.1 µM
- GI50 (SK-MEL-2 melanoma): 4.02 µM
- TGI (SK-MEL-2 melanoma): > 100 µM
- GI50 (SK-MEL-28 melanoma): 4.34 µM
- TGI (SK-MEL-28 melanoma): > 100 µM
- GI50 (SK-MEL-5 melanoma): 1530 nM
- TGI (SK-MEL-5 melanoma): 3.68 µM
- GI50 (SK-OV-3 ovarian): 29.3 µM
- TGI (SK-OV-3 ovarian): > 100 µM
- GI50 (SN12C renal): 4.06 µM
- TGI (SN12C renal): > 100 µM
- GI50 (SNB-19 CNS): 8.15 µM
- TGI (SNB-19 CNS): > 100 µM
- GI50 (SNB-75 CNS): 11.3 µM
- TGI (SNB-75 CNS): 49.7 µM
- GI50 (SR leukemia): 3.5 µM
- TGI (SR leukemia): > 100 µM
- GI50 (SW-620 colon): 7.25 µM
- TGI (SW-620 colon): > 100 µM
- GI50 (T-47D breast): 2100 nM
- TGI (T-47D breast): > 100 µM
- GI50 (TK-10 renal): 6.34 µM
- TGI (TK-10 renal): > 100 µM
- GI50 (U251 CNS): 4.56 µM
- TGI (U251 CNS): > 100 µM
- GI50 (UACC-257 melanoma): 3.22 µM
- TGI (UACC-257 melanoma): > 100 µM
- GI50 (UACC-62 melanoma): 2210 nM
- TGI (UACC-62 melanoma): > 100 µM
- GI50 (UO-31 renal): 2910 nM
- TGI (UO-31 renal): > 100 µM
